Assay results from BindingDB's records for doi:10.1016/j.bmcl.2011.06.080 (Johnson & Johnson Pharmaceutical Research and Development, 2011).

Test: Antagonist activity at CCR2 in human THP1 cells assessed as inhibition of MCP1-induced chemotaxis after 3 hrs

Row | SMILES | IC50 [nM]
1 | N[C@]1(c2ccccc2)CC[C@H](N2CC(NC(=O)CNC(=O)c3cccc(C(F)(F)F)c3)C2)CC1 | 160
2 | O=C(CNC(=O)c1cccc(C(F)(F)F)c1)NC1CN([C@H]2CC[C@](O)(c3ccc4c(c3)OCO4)CC2)C1 | 27
3 | O=C(CNC(=O)c1cccc(C(F)(F)F)c1)NC1CN([C@H]2CC[C@H](c3ccc(O)cn3)CC2)C1 | 14
4 | COc1ccc([C@H]2CC[C@H](N3CC(NC(=O)CNC(=O)c4cccc(C(F)(F)F)c4)C3)CC2)cn1 | 11
5 | O=C(CNC(=O)c1cccc(C(F)(F)F)c1)NC1CN([C@H]2CC[C@H](c3cccnc3)CC2)C1 | 52
6 | O=C(CNC(=O)c1cccc(C(F)(F)F)c1)NC1CN([C@H]2CC[C@H](c3ccc(N4CCCC4)cc3)CC2)C1 | 240
7 | O=C(CNC(=O)c1cccc(C(F)(F)F)c1)NC1CN([C@H]2CC[C@H](c3ccc(O)cc3)CC2)C1 | 42
8 | COc1ccc([C@H]2CC[C@H](N3CC(NC(=O)CNC(=O)c4cccc(C(F)(F)F)c4)C3)CC2)cc1 | 25
9 | O=C(CNC(=O)c1cccc(C(F)(F)F)c1)NC1CN([C@H]2CC[C@](O)(c3ccc4c(c3)OCC4)CC2)C1 | 52

More lines, now with the values ahead:

Row | IC50 [nM] | SMILES
10 | 67 | COc1ccc([C@]2(O)CC[C@@H](N3CC(NC(=O)CNC(=O)c4cccc(C(F)(F)F)c4)C3)CC2)cc1
11 | 57 | O=C(CNC(=O)c1cccc(C(F)(F)F)c1)NC1CN([C@H]2CC[C@H](c3ccncc3O)CC2)C1
12 | 28 | COc1cnccc1[C@H]1CC[C@H](N2CC(NC(=O)CNC(=O)c3cccc(C(F)(F)F)c3)C2)CC1
13 | 21 | O=C(CNC(=O)c1cccc(C(F)(F)F)c1)NC1CN([C@H]2CC[C@H](c3ccc4nc[nH]c4c3)CC2)C1
14 | 1300 | O=C(CNC(=O)c1cccc(C(F)(F)F)c1)NC1CN([C@H]2CC[C@H](c3ccc(C(=O)O)cc3)CC2)C1
15 | 15 | O=C(CNC(=O)c1cccc(C(F)(F)F)c1)NC1CN([C@H]2CC[C@@H](c3ccc4c(c3)OCO4)CC2)C1
16 | 170 | COc1cc([C@H]2CC[C@H](N3CC(NC(=O)CNC(=O)c4cccc(C(F)(F)F)c4)C3)CC2)ccn1
